Reference: PubChem BioAssay AID2060495 (Molecular Pharmacology Branch, DTP, NCI, 2025)

Tested on: 521955-158-R2-J5-PDC complex spheroid viability
Assay: Anticancer human tumor 521955-158-R2-J5-PDC patient-derived pancreatic carcinoma cell line growth inhibition [GQUAD]
Conditions: for IC50: curve of first compound; for viability, T/C: stronger effect = lower value; active = viability on the fitted dose curve at most 10% of control; inactive = the rest
Procedure, shortened: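 Multi-cell-type spheroids of tumor cells with HUVEC and mesenchymal stem cells, treated with drug combinations. Concentrations descend in half-log steps from near clinical Cmax, or from 10 microM where Cmax is unknown; viability read-out.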

[1] = second compound 0.0316 µM, first compound 0.0316 µM
[2] = second compound 0.0316 µM, first compound 0.1 µM
[3] = second compound 0.0316 µM, first compound 0.316 µM
[4] = second compound 0.0316 µM, first compound 1 µM
[5] = second compound 0.0316 µM, first compound 3.16 µM
[6] = second compound 0.0316 µM, first compound 10 µM
[7] = second compound 0.1 µM, first compound 0.0316 µM
[8] = second compound 0.1 µM, first compound 0.1 µM
[9] = second compound 0.1 µM, first compound 0.316 µM
[10] = second compound 0.1 µM, first compound 1 µM
[11] = second compound 0.1 µM, first compound 3.16 µM
[12] = second compound 0.1 µM, first compound 10 µM
[13] = second compound 0.316 µM, first compound 0.0316 µM
[14] = second compound 0.316 µM, first compound 0.1 µM
[15] = second compound 0.316 µM, first compound 0.316 µM
[16] = second compound 0.316 µM, first compound 1 µM
[17] = second compound 0.316 µM, first compound 3.16 µM
[18] = second compound 0.316 µM, first compound 10 µM
[19] = second compound 1 µM, first compound 0.0316 µM
[20] = second compound 1 µM, first compound 0.1 µM
[21] = second compound 1 µM, first compound 0.316 µM
[22] = second compound 1 µM, first compound 1 µM
[23] = second compound 1 µM, first compound 3.16 µM
[24] = second compound 1 µM, first compound 10 µM
[25] = second compound 3.16 µM, first compound 0.0316 µM
[26] = second compound 3.16 µM, first compound 0.1 µM
[27] = second compound 3.16 µM, first compound 0.316 µM
[28] = second compound 3.16 µM, first compound 1 µM
[29] = second compound 3.16 µM, first compound 3.16 µM
[30] = second compound 3.16 µM, first compound 10 µM
[31] = second compound 10 µM, first compound 0.0316 µM
[32] = second compound 10 µM, first compound 0.1 µM
[33] = second compound 10 µM, first compound 0.316 µM
[34] = second compound 10 µM, first compound 1 µM
[35] = second compound 10 µM, first compound 3.16 µM
[36] = second compound 10 µM, first compound 10 µM
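Note: spheroids exposed to agents for one week before reading.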
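Throughout, for viability, T/C: 100% = DMSO vehicle control viability.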

C#Cc1c(F)ccc2cc(O)cc(-c3ncc4c(N5CC6CCC(C5)N6)nc(OCC56CCCN5CC(F)C6)nc4c3F)c12 (stereo unspecified) + CN(C)c1ccc(Nc2c3ccc(NC(=O)CCN4CCCC4)cc3nc3cc(NC(=O)CCN4CCCC4)ccc23)cc1
159 nM: IC50 (second compound 3.16 µM)
1850 nM: IC50 (second compound 0.1 µM)
3390 nM: IC50 (second compound 0.316 µM)
< 31.6 nM: IC50 (second compound 10 µM)
1770 nM: IC50 (second compound 0.0316 µM)
1400 nM: IC50 (second compound 1 µM)
inactive: viability, T/C [1] 66.3% | viability, T/C [2] 62.5% | viability, T/C [3] 57.5% | viability, T/C [4] 48.1% | viability, T/C [5] 52.5% | viability, T/C [6] 41.7% | viability, T/C [7] 74.2% | viability, T/C [8] 52.2% | viability, T/C [9] 62% | viability, T/C [10] 60.8% | viability, T/C [11] 40.6% | viability, T/C [12] 33.5% | viability, T/C [13] 61.3% | viability, T/C [14] 57% | viability, T/C [15] 62.8% | viability, T/C [16] 52.5% | viability, T/C [17] 53.1% | viability, T/C [18] 32.6% | viability, T/C [19] 74.8% | viability, T/C [20] 56.4% | viability, T/C [21] 60.1% | viability, T/C [22] 50% | viability, T/C [23] 51.6% | viability, T/C [24] 34.2% | viability, T/C [25] 49.7% | viability, T/C [26] 63.3% | viability, T/C [27] 40.5% | viability, T/C [28] 35.8% | viability, T/C [29] 29% | viability, T/C [30] 16.8% | viability, T/C [31] 31.8% | viability, T/C [32] 23.6% | viability, T/C [33] 15.2% | viability, T/C [34] 10.6%
active: viability, T/C [35] 6.1% | viability, T/C [36] 1.84%

CC(=O)O[C@H]1C(=O)[C@@]2(C)[C@H]([C@H](OC(=O)c3ccccc3)[C@]3(O)C[C@H](OC(=O)[C@H](O)[C@@H](NC(=O)c4ccccc4)c4ccccc4)C(C)=C1C3(C)C)[C@]1(OC(C)=O)CO[C@@H]1C[C@@H]2O + CN(C)c1ccc(Nc2c3ccc(NC(=O)CCN4CCCC4)cc3nc3cc(NC(=O)CCN4CCCC4)ccc23)cc1
inactive: viability, T/C [1] 46.1% | viability, T/C [2] 40.9% | viability, T/C [3] 35.2% | viability, T/C [4] 32.3% | viability, T/C [5] 27.5% | viability, T/C [6] 34.7% | viability, T/C [7] 55.7% | viability, T/C [8] 37.6% | viability, T/C [9] 30.8% | viability, T/C [10] 23% | viability, T/C [11] 33.9% | viability, T/C [12] 29.9% | viability, T/C [13] 47.7% | viability, T/C [14] 34.1% | viability, T/C [15] 28% | viability, T/C [16] 22.7% | viability, T/C [17] 29.4% | viability, T/C [18] 33.1% | viability, T/C [19] 54.6% | viability, T/C [20] 33% | viability, T/C [21] 28.3% | viability, T/C [22] 33.9% | viability, T/C [23] 39.4% | viability, T/C [24] 38.5% | viability, T/C [25] 50% | viability, T/C [26] 31.1% | viability, T/C [27] 30.3% | viability, T/C [28] 31.5% | viability, T/C [29] 33.4% | viability, T/C [30] 42% | viability, T/C [31] 50.9% | viability, T/C [32] 35.2% | viability, T/C [33] 36.4% | viability, T/C [34] 27.8% | viability, T/C [35] 29.9% | viability, T/C [36] 35.2%
< 31.6 nM: IC50 (second compound 0.0316 µM) | IC50 (second compound 0.316 µM) | IC50 (second compound 1 µM) | IC50 (second compound 10 µM)
44.8 nM: IC50 (second compound 0.1 µM)
31.7 nM: IC50 (second compound 3.16 µM)

CCCS(=O)(=O)Nc1ccc(F)c(C(=O)c2c[nH]c3ncc(-c4ccc(Cl)cc4)cc23)c1F + CN(C)c1ccc(Nc2c3ccc(NC(=O)CCN4CCCC4)cc3nc3cc(NC(=O)CCN4CCCC4)ccc23)cc1
> 10000 nM: IC50 (second compound 0.0316 µM) | IC50 (second compound 0.1 µM) | IC50 (second compound 0.316 µM) | IC50 (second compound 1 µM)
inactive: viability, T/C [1] 124% | viability, T/C [2] 89.2% | viability, T/C [3] 80.7% | viability, T/C [4] 118% | viability, T/C [5] 271% | viability, T/C [6] 106% | viability, T/C [7] 102% | viability, T/C [8] 84% | viability, T/C [9] 72.4% | viability, T/C [10] 109% | viability, T/C [11] 264% | viability, T/C [12] 106% | viability, T/C [13] 95.5% | viability, T/C [14] 90.1% | viability, T/C [15] 92.5% | viability, T/C [16] 104% | viability, T/C [17] 248% | viability, T/C [18] 98.3% | viability, T/C [19] 95.4% | viability, T/C [20] 76.4% | viability, T/C [21] 76.8% | viability, T/C [22] 171% | viability, T/C [23] 251% | viability, T/C [24] 85.2% | viability, T/C [25] 73% | viability, T/C [26] 83.6% | viability, T/C [27] 61% | viability, T/C [28] 111% | viability, T/C [29] 174% | viability, T/C [30] 22.9% | viability, T/C [31] 69.9% | viability, T/C [32] 68.4% | viability, T/C [33] 111% | viability, T/C [34] 100% | viability, T/C [35] 58%
6690 nM: IC50 (second compound 3.16 µM)
3720 nM: IC50 (second compound 10 µM)
active: viability, T/C [36] 2.26%
